Numbers after ± are expanded uncertainties.
Experiment: refractive index (Na D-line) (dimensionless)
Conditions: 293.1 K; 101.33 kPa; Liquid; Standard Abbe refractometry

## O=CN1CCOCC1 [N-formylmorpholine]
  refractive index: 1.484 ± 0.0007

## CC1CCCCC1 [methylcyclohexane]
  refractive index: 1.423 ± 0.0007

From the NIST ThermoML archive (doi:10.1016/j.fluid.2007.03.013)
